Results from ChEMBL document CHEMBL3885881, “DrugMatrix”.

Species on record: Rattus norvegicus
Assay: DrugMatrix - Regimen: Daily Repeat
Type: toxicity, organism-based, Sprague-Dawley
Parameters: regimen Daily Repeat, gender Male, age 6-8 weeks
Details: in vivo, po, 0 mg/kg, route oral GAVAGE, dose level Control, vehicle .5 % CMC; for ABSOLUTE BASOPHIL / ABSOLUTE EOSINOPHIL / ABSOLUTE LYMPHOCYTE / ABSOLUTE MONOCYTE / ABSOLUTE SEGMENTED NEUTROPHIL / BASOPHIL / EOSINOPHIL / ERYTHROCYTE COUNT / HEMATOCRIT / HEMOGLOBIN / LEUKOCYTE COUNT / LYMPHOCYTE / MEAN CORPUSCULAR HEMOGLOBIN / MEAN CORPUSCULAR HEMOGLOBIN CONCENTRATION / MEAN CORPUSCULAR VOLUME / MONOCYTE / NEUTROPHIL / NUCLEATED RED BLOOD CELLS / PLATELET COUNT: tissue Blood; for ALANINE AMINOTRANSFERASE / ALBUMIN / ALKALINE PHOSPHATASE / ASPARTATE AMINOTRANSFERASE / BLOOD UREA NITROGEN / CARBON DIOXIDE / CHLORIDE / CHOLESTEROL / CREATININE / GLUCOSE / LACTATE DEHYDROGENASE / LIPASE / PHOSPHORUS / POTASSIUM / SODIUM / TOTAL BILIRUBIN / TOTAL PROTEIN / URIC ACID: tissue Plasma

COc1ccccc1[N+](=O)[O-] [2-NITROANISOLE]
ABSOLUTE BASOPHIL (72 h, time 3 day): 0 CELLS/uL | ABSOLUTE EOSINOPHIL (72 h, time 3 day): 279.83 CELLS/uL | ABSOLUTE LYMPHOCYTE (72 h, time 3 day): 13152.5 CELLS/uL | ABSOLUTE MONOCYTE (72 h, time 3 day): 1013.83 CELLS/uL | ABSOLUTE SEGMENTED NEUTROPHIL (72 h, time 3 day): 2420.5 CELLS/uL | BASOPHIL (72 h, time 3 day): 0% | EOSINOPHIL (72 h, time 3 day): 1.67% | ERYTHROCYTE COUNT (72 h, time 3 day): 5.26 x10E6/uL | HEMATOCRIT (72 h, time 3 day): 32.22% | HEMOGLOBIN (72 h, time 3 day): 12.02 G/DL | LEUKOCYTE COUNT (72 h, time 3 day): 16.87 x10E3/uL | LYMPHOCYTE (72 h, time 3 day): 77.83% | MEAN CORPUSCULAR HEMOGLOBIN (72 h, time 3 day): 22.93 pg | MEAN CORPUSCULAR HEMOGLOBIN CONCENTRATION (72 h, time 3 day): 37.32 G/DL | MEAN CORPUSCULAR VOLUME (72 h, time 3 day): 61.4 fL | MONOCYTE (72 h, time 3 day): 6% | NEUTROPHIL (72 h, time 3 day): 14.5% | NUCLEATED RED BLOOD CELLS (72 h, time 3 day): 0 /100WBC | PLATELET COUNT (72 h, time 3 day): 1122.17 x10E3/uL | ALANINE AMINOTRANSFERASE (72 h, time 3 day): 55.67 u/L | ALBUMIN (72 h, time 3 day): 4.35 G/DL | ALKALINE PHOSPHATASE (72 h, time 3 day): 362.67 u/L | ASPARTATE AMINOTRANSFERASE (72 h, time 3 day): 96 u/L | BLOOD UREA NITROGEN (72 h, time 3 day): 18 mg/dL | CARBON DIOXIDE (72 h, time 3 day): 27.5 mmol/L | CHLORIDE (72 h, time 3 day): 100.17 MEQ/L | CHOLESTEROL (72 h, time 3 day): 74.5 mg/dL | CREATININE (72 h, time 3 day): 0.17 mg/dL | GLUCOSE (72 h, time 3 day): 141.67 mg/dL | LACTATE DEHYDROGENASE (72 h, time 3 day): 682.5 u/L | LIPASE (72 h, time 3 day): 10 u/L | PHOSPHORUS (72 h, time 3 day): 11.5 mg/dL | POTASSIUM (72 h, time 3 day): 6.41 MEQ/L | SODIUM (72 h, time 3 day): 141.2 MEQ/L | TOTAL BILIRUBIN (72 h, time 3 day): 0.18 mg/dL | TOTAL PROTEIN (72 h, time 3 day): 5.88 G/DL | URIC ACID (72 h, time 3 day): 1.4 mg/dL | ABSOLUTE BASOPHIL (120 h, time 5 day): 0 CELLS/uL | ABSOLUTE EOSINOPHIL (120 h, time 5 day): 18.5 CELLS/uL | ABSOLUTE LYMPHOCYTE (120 h, time 5 day): 8146.83 CELLS/uL | ABSOLUTE MONOCYTE (120 h, time 5 day): 204.83 CELLS/uL | ABSOLUTE SEGMENTED NEUTROPHIL (120 h, time 5 day): 1329.83 CELLS/uL | BASOPHIL (120 h, time 5 day): 0% | EOSINOPHIL (120 h, time 5 day): 0.17% | ERYTHROCYTE COUNT (120 h, time 5 day): 5.37 x10E6/uL | HEMATOCRIT (120 h, time 5 day): 33.17% | HEMOGLOBIN (120 h, time 5 day): 12.07 G/DL | LEUKOCYTE COUNT (120 h, time 5 day): 9.7 x10E3/uL | LYMPHOCYTE (120 h, time 5 day): 85.33% | MEAN CORPUSCULAR HEMOGLOBIN (120 h, time 5 day): 22.52 pg | MEAN CORPUSCULAR HEMOGLOBIN CONCENTRATION (120 h, time 5 day): 36.42 G/DL | MEAN CORPUSCULAR VOLUME (120 h, time 5 day): 61.78 fL | MONOCYTE (120 h, time 5 day): 1.83% | NEUTROPHIL (120 h, time 5 day): 12.67% | NUCLEATED RED BLOOD CELLS (120 h, time 5 day): 0 /100WBC | PLATELET COUNT (120 h, time 5 day): 907.5 x10E3/uL | ALANINE AMINOTRANSFERASE (120 h, time 5 day): 58.5 u/L | ALBUMIN (120 h, time 5 day): 4.4 G/DL | ALKALINE PHOSPHATASE (120 h, time 5 day): 377.67 u/L | ASPARTATE AMINOTRANSFERASE (120 h, time 5 day): 140.33 u/L | BLOOD UREA NITROGEN (120 h, time 5 day): 15.33 mg/dL | CARBON DIOXIDE (120 h, time 5 day): 32.17 mmol/L | CHLORIDE (120 h, time 5 day): 100 MEQ/L | CHOLESTEROL (120 h, time 5 day): 71.83 mg/dL | CREATININE (120 h, time 5 day): 0.18 mg/dL | GLUCOSE (120 h, time 5 day): 185 mg/dL | LACTATE DEHYDROGENASE (120 h, time 5 day): 241.5 u/L | LIPASE (120 h, time 5 day): 9.5 u/L | PHOSPHORUS (120 h, time 5 day): 13.02 mg/dL | POTASSIUM (120 h, time 5 day): 6.45 MEQ/L | SODIUM (120 h, time 5 day): 143.45 MEQ/L | TOTAL BILIRUBIN (120 h, time 5 day): 0.22 mg/dL | TOTAL PROTEIN (120 h, time 5 day): 6.1 G/DL | URIC ACID (120 h, time 5 day): 1 mg/dL | ABSOLUTE BASOPHIL ([…], time 14 day): 0 CELLS/uL | ABSOLUTE EOSINOPHIL ([…], time 14 day): 117.17 CELLS/uL | ABSOLUTE LYMPHOCYTE ([…], time 14 day): 13562 CELLS/uL | ABSOLUTE MONOCYTE ([…], time 14 day): 534.83 CELLS/uL | ABSOLUTE SEGMENTED NEUTROPHIL ([…], time 14 day): 2486 CELLS/uL | BASOPHIL ([…], time 14 day): 0% | EOSINOPHIL ([…], time 14 day): 0.83% | ERYTHROCYTE COUNT ([…], time 14 day): 6.14 x10E6/uL | HEMATOCRIT ([…], time 14 day): 36.87% | HEMOGLOBIN ([…], time 14 day): 13.87 G/DL | LEUKOCYTE COUNT ([…], time 14 day): 16.7 x10E3/uL | LYMPHOCYTE ([…], time 14 day): 81% | MEAN CORPUSCULAR HEMOGLOBIN ([…], time 14 day): 22.63 pg | MEAN CORPUSCULAR HEMOGLOBIN CONCENTRATION ([…], time 14 day): 37.62 G/DL | MEAN CORPUSCULAR VOLUME ([…], time 14 day): 60.15 fL | MONOCYTE ([…], time 14 day): 3.17% | NEUTROPHIL ([…], time 14 day): 15% | NUCLEATED RED BLOOD CELLS ([…], time 14 day): 0 /100WBC | PLATELET COUNT ([…], time 14 day): 974.83 x10E3/uL | ALANINE AMINOTRANSFERASE ([…], time 14 day): 52.33 u/L | ALBUMIN ([…], time 14 day): 4.48 G/DL | ALKALINE PHOSPHATASE ([…], time 14 day): 346.17 u/L | ASPARTATE AMINOTRANSFERASE ([…], time 14 day): 81 u/L | BLOOD UREA NITROGEN ([…], time 14 day): 15.67 mg/dL | CARBON DIOXIDE ([…], time 14 day): 34.33 mmol/L | CHLORIDE ([…], time 14 day): 100.17 MEQ/L | CHOLESTEROL ([…], time 14 day): 70.83 mg/dL | CREATININE ([…], time 14 day): 0.22 mg/dL | GLUCOSE ([…], time 14 day): 141.17 mg/dL | LACTATE DEHYDROGENASE ([…], time 14 day): 121.33 u/L | LIPASE ([…], time 14 day): 8.33 u/L | PHOSPHORUS ([…], time 14 day): 9.97 mg/dL | POTASSIUM ([…], time 14 day): 6.4 MEQ/L | SODIUM ([…], time 14 day): 143.72 MEQ/L | TOTAL BILIRUBIN ([…], time 14 day): 0.22 mg/dL | TOTAL PROTEIN ([…], time 14 day): 6.45 G/DL | URIC ACID ([…], time 14 day): 1.25 mg/dL
